Broadly, the mass density is the mass of a sample divided by its volume.

Here are results for five compounds from the NIST ThermoML archive (doi:10.1021/acs.jced.5b00355).

The structures appear in SMILES notation. ± gives the expanded uncertainty stated by the source.

A short description of this data set: cn = amount concentration of the nth substance listed, in mol/dm3. The settings on record: 298.2 K, 101 kPa, Liquid, Pycnometric method.

Consider `Nc1nnc(-c2cccc(Cl)c2Cl)c(N)n1` [lamotrigine] + CCOC(C)=O, for which the mass density (c1 = 0.0106) is listed as 995.4 ± 8 kg/m3.

`Nc1nnc(-c2cccc(Cl)c2Cl)c(N)n1` [lamotrigine] + CO: the mass density (c1 = 0.0199) is given as 834.7 ± 6.7 kg/m3.

Take `Nc1nnc(-c2cccc(Cl)c2Cl)c(N)n1` [lamotrigine] + CCO: the mass density (c1 = 0.0134) stood at 851.7 ± 6.8 kg/m3.

Regarding `Nc1nnc(-c2cccc(Cl)c2Cl)c(N)n1` [lamotrigine] + CCCO, under “c1 = 0.0245”, the mass density was 893.8 ± 7.2 kg/m3.

In the case of `Nc1nnc(-c2cccc(Cl)c2Cl)c(N)n1` [lamotrigine] + CC(C)=O, under “c1 = 0.0167”, the mass density was 852.8 ± 6.9 kg/m3.
